# From ChEMBL document CHEMBL1125940 (Bioorg Med Chem Lett, 1991)
# Positions of bridges follow the written chain, without caps; N, C: chain ends. Residues, ends and D or L forms follow the SMILES beside them.
# Organism: Oryctolagus cuniculus
# Assay: Percent of endothelin-1 induced contraction of carotid arteries isolated from New Zealand white rabbits, tested at 1 uM concentration of compound
# Assay type: functional
row,SMILES,Contraction [%]
1,CC[C@H](C)[C@H](NC(=O)[C@H](CC(=O)O)NC(=O)[C@H](CC(C)C)NC(=O)[C@H](Cc1c[nH]cn1)NC(=O)[C@@H]1CSSC[C@H](NC(C)=O)C(=O)N[C@@H](CO)C(=O)N[C@H]2CSSC[C@H](NC(=O)[C@H](CCC(=O)O)NC(=O)[C@H](CCCCN)NC(=O)[C@H](CC(=O)O)NC(=O)[C@H](CCSC)NC(=O)[C@H](CC(C)C)NC(=O)[C@H](CO)NC(=O)[C@H](CO)NC2=O)C(=O)N[C@@H](C(C)C)C(=O)N[C@@H](Cc2ccc(O)cc2)C(=O)N[C@@H](Cc2ccccc2)C(=O)N1)C(=O)N[C@H](C(=O)N[C@@H](Cc1c[nH]c2ccccc12)C(=O)O)[C@@H](C)CC,36
2,"CC[C@H](C)[C@H](NC(=O)[C@H](CC(=O)O)NC(=O)[C@H](CC(C)C)NC(=O)[C@H](Cc1c[nH]cn1)NC(=O)[C@@H]1CSSC[C@H](N)C(=O)N[C@@H](CO)C(=O)N[C@H]2CSSC[C@H](NC(=O)[C@H](CCC(=O)O)NC(=O)[C@H](CCCCN)NC(=O)[C@H](C)NC(=O)[C@H](CCSC)NC(=O)[C@H](CC(C)C)NC(=O)[C@H](CO)NC(=O)[C@H](CO)NC2=O)C(=O)N[C@@H](C(C)C)C(=O)N[C@@H](Cc2ccc(O)cc2)C(=O)N[C@@H](Cc2ccccc2)C(=O)N1)C(=O)N[C@H](C(=O)N[C@@H](Cc1c[nH]c2ccccc12)C(=O)O)[C@@H](C)CC (H-CSCSSLMAKECVYFCHLDIIW-OH; disulfide 1-15, 3-11)",60
3,"CC[C@H](C)[C@H](NC(=O)[C@H](CC(=O)O)NC(=O)[C@H](CC(C)C)NC(=O)[C@H](Cc1c[nH]cn1)NC(=O)[C@@H]1CSSC[C@H](N)C(=O)N[C@@H](CO)C(=O)N[C@H]2CSSC[C@H](NC(=O)[C@H](C)NC(=O)[C@H](CCCCN)NC(=O)[C@H](CC(=O)O)NC(=O)[C@H](CCSC)NC(=O)[C@H](CC(C)C)NC(=O)[C@H](CO)NC(=O)[C@H](CO)NC2=O)C(=O)N[C@@H](C(C)C)C(=O)N[C@@H](Cc2ccc(O)cc2)C(=O)N[C@@H](Cc2ccccc2)C(=O)N1)C(=O)N[C@H](C(=O)N[C@@H](Cc1c[nH]c2ccccc12)C(=O)O)[C@@H](C)CC (H-CSCSSLMDKACVYFCHLDIIW-OH; disulfide 1-15, 3-11)",7
4,"CC[C@H](C)[C@H](NC(=O)[C@H](CC(=O)O)NC(=O)[C@H](CC(C)C)NC(=O)[C@H](Cc1c[nH]cn1)NC(=O)[C@@H]1CSSC[C@H](N)C(=O)N[C@@H](CO)C(=O)N[C@H]2CSSC[C@H](NC(=O)[C@H](CCC(=O)O)NC(=O)[C@H](CCCCN)NC(=O)[C@H](CC(=O)O)NC(=O)[C@H](CCSC)NC(=O)[C@H](CC(C)C)NC(=O)[C@H](CO)NC(=O)[C@H](CO)NC2=O)C(=O)N[C@@H](C(C)C)C(=O)N[C@@H](Cc2ccc(O)cc2)C(=O)N[C@@H](C)C(=O)N1)C(=O)N[C@H](C(=O)N[C@@H](Cc1c[nH]c2ccccc12)C(=O)O)[C@@H](C)CC (H-CSCSSLMDKECVYACHLDIIW-OH; disulfide 1-15, 3-11)",6
5,"CC[C@H](C)[C@H](NC(=O)[C@H](CC(=O)O)NC(=O)[C@H](C)NC(=O)[C@H](Cc1c[nH]cn1)NC(=O)[C@@H]1CSSC[C@H](N)C(=O)N[C@@H](CO)C(=O)N[C@H]2CSSC[C@H](NC(=O)[C@H](CCC(=O)O)NC(=O)[C@H](CCCCN)NC(=O)[C@H](CC(=O)O)NC(=O)[C@H](CCSC)NC(=O)[C@H](CC(C)C)NC(=O)[C@H](CO)NC(=O)[C@H](CO)NC2=O)C(=O)N[C@@H](C(C)C)C(=O)N[C@@H](Cc2ccc(O)cc2)C(=O)N[C@@H](Cc2ccccc2)C(=O)N1)C(=O)N[C@H](C(=O)N[C@@H](Cc1c[nH]c2ccccc12)C(=O)O)[C@@H](C)CC (H-CSCSSLMDKECVYFCHADIIW-OH; disulfide 1-15, 3-11)",0
